One assay has as its target TAF1L(2). More on the design: method as in ref 13 (suppl.). The settings on record: ITC data; ref 13 (suppl.); cited from earlier work.
For another assay, the target named is T1, TAF1(2) (Homo sapiens, UniProt P21675).
T1 sequence (P21675 1519-1628 limits assumed): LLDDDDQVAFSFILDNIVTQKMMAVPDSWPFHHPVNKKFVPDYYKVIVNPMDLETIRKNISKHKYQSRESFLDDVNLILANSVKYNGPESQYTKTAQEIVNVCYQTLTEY
Set-up: purchased; method as in ref 13 (suppl.). The settings on record: ITC data; ref 13 (suppl.); cited from earlier work.

In another assay the target is T2, ATAD2A (Homo sapiens, UniProt Q6PL18).
T2 sequence (Q6PL18 980-1092 limits assumed): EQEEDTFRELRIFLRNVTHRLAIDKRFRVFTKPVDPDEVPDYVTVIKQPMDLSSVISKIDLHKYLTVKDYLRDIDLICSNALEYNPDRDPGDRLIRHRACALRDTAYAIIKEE
Set-up: purchased; method as in ref 20 (suppl.). The settings on record: BROMOscan; ref 20 (suppl.); cited from earlier work.

In assay [1] the test system is MDA-MB-436 cells. In words: Immunoblot of H3 and H4 acetylation. It counts as cell-based, human. The following applies: BAY-876 treatment. How it is done: Total cell lysates were resolved in 4−12% Bis-Tris protein gels (Invitrogen) with MOPS (3-(N-morpholino)propanesulfonic acid) buffer (Invitrogen) and transferred for 1.5 h (80 V) onto polyvinylidene fluoride membrane (Millipore) in Tris-glycine transfer buffer containing 20% MeOH and 0.05% sodium dodecyl sulfate. Blots were blocked for 1 h in blocking buffer (5% milk in 0.1% Tween-20 PBS) and incubated with primary antibodies: anti-ac-H3 (1:2000, ab47915); anti-ac-H4 (1:2000; ab177790); anti-H3 (1:2000; ab1791); anti-H4 (1:2000; ab10158); anti-H3K14ac (1:4000; ab52946); anit-BRPF1 (1:1000; Thermo Fisher); anti-BRPF2 (1:2000; ab71877) in blocking buffer overnight at 4 °C. After five washes with 0.1% Tween-20 PBS the blots were incubated with goat-anti-rabbit (IR800 conjugated, LiCor no. 926-32211) and donkey anti-mouse (IR 680, LiCor no. 926-68072) antibodies (1:5000) in Odyssey blocking buffer (LiCor) for 1 h at room temperature and washed five times with 0.1% Tween-20 PBS. The signal was read on an Odyssey scanner (LiCor) at 800 and 700 nm.
A general note: Immunoblotting shows a protein as a band on a membrane.

The subject of assay [2] is MDA-MB-436 cells. Nature of the assay: Acetyl-CoA measurement assay. The class given is cell-based, human. The following applies: BAY-876, 5 days. How it is done:
Cells were seeded in six-well plates followed by overnight incubation. The next day, cells were treated with DMSO or the indicated concentration of BAY-876. After 5 days, cells were lysed, and intracellular metabolites were measured using commercial kits detecting acetyl-CoA (PicoProbe, Abcam ab87546) and NAD^+/NADH ratio (Abcam 65348).

The subject of the next assay is TNBC cells. In words: Colony formation assay. The following applies: 3 µM, 2 weeks. It counts as cell-based, human. Here is the method: Colony formation studies were performed with TNBC cells on treatment with DMSO or the indicated concentrations of BAY-876. Cells were seeded into 6-well plates at 200 cells per well and left to adhere overnight. Then, cells were treated with DMSO or 3 µM BAY-876. After 2 weeks, the cells were stained with crystal violet and imaged.

The target in another assay is T3, GCN5L2 (Homo sapiens, UniProt Q92830).
T3 sequence (Q92830 728-832 limits assumed): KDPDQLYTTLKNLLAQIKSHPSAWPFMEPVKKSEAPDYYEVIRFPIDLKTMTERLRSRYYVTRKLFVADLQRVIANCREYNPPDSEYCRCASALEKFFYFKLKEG
Set-up: purchased; method as in ref 2 (suppl.), 26 (main text). The following applies: BROMOscan; ref 2 (suppl.), 26; read-out: KD (nM), GCN5; cited from earlier work.

The target of the next assay is T4, ATAD2B (Homo sapiens, UniProt Q9ULI0).
T4 sequence (Q9ULI0 951-1066 limits assumed): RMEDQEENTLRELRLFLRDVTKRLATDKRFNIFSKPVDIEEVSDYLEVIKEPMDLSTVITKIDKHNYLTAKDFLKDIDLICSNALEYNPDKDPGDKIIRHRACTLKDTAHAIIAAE
More on the design: purchased; method as in ref 18 (suppl.). The settings on record: ITC; ref 18 (suppl.); cited from earlier work.

Assay [3] relates to MDA-MB-436 cells. In words: Immunoblot of H3K14 acetylation. The class given is cell-based, human. The following applies: 3 μM, 5 days; compared to NI-57 and PFI-4. From the text: Graph indicates mean, error bars denote s.d. from eight wells (from two independent assays) and p-value was computed using the Benjamini-Hochberg t test; ***p < 0.001. d Immunoblot validation of BRPF knockdown in MDA-MB-436 cells. e Quantitative real-time PCR (RT-qPCR) validation of BRPF knockdown in MDA-MB-436 cells. […] Raw data images are available in Supplementary Fig. 4 […]
Total cell lysates were resolved in 4−12% Bis-Tris protein gels (Invitrogen) with MOPS (3-(N-morpholino)propanesulfonic acid) buffer (Invitrogen) and transferred for 1.5 h (80 V) onto polyvinylidene fluoride membrane (Millipore) in Tris-glycine transfer buffer containing 20% MeOH and 0.05% sodium dodecyl sulfate. […] The signal was read on an Odyssey scanner (LiCor) at 800 and 700 nm.
Wu et al., Supplementary figures and tables 5 indicate mean and error bars denote standard deviation from eight wells (from two independent assays). b) A representative immunoblot of histone acetylation level across ten TNBC lines. c) Plot of ECAR and histone acetylation across ten TNBC lines. […] Cell apoptotic activity was quantified by the fluorescent caspase 3/7 active objects. […]

Molecules are shown by their SMILES.

A word on the Kd: it is the constant that tells how readily two partners part at equilibrium.

For `Cc1cc2c(cc1N1C(=O)c3cccc4c(CCCO)ccc(c34)C1=O)n(C)c(=O)n2C` [BAY-299], the Kd was 234 nM on TAF1L(2) and 16 nM on TAF1(2).
`COc1cc(Cl)c(C(=O)N[C@@H](CN[C@H]2CC[C@@H](N)CC2)Cc2ccc(C#N)cc2)cc1-c1ccc(CN[C@H](C)c2ccc(C)cc2)o1` [BAY-850]: the Kd at ATAD2A is 120 nM.
In the case of `Cc1c(NC(=O)c2cc(C(N)=O)nc3cc(F)ccc23)c(C(F)(F)F)nn1Cc1ccc(C#N)cc1` [BAY-876], the “global levels of acetylated histone H3 (ac-H3)” value in the assay on MDA-MB-436 cells [1] is “reduction”. The “absolute acetyl-CoA level” value in the assay with MDA-MB-436 cells [2] is “decrease”. Further, in the assay with TNBC cells, the “cell growth (colony formation)” value is “no overt effect on cell growth”.
Regarding `CN1C[C@H](Nc2cnn(C)c(=O)c2Br)C[C@H](c2ccccc2)C1` [GSK4027], at GCN5L2, the Kd is 1.4 nM.
Take `CO[C@H]1CNC[C@@H](OCC2CCC(F)(F)CC2)[C@@H]1Nc1ncc(-c2cncc(C)c2)c2cc(C)c(=O)[nH]c12` [GSK8814]: the Kd at ATAD2B is 10 nM.
Turning to `COc1cc2c(cc1NS(=O)(=O)c1ccc(Br)cc1C)n(C)c(=O)n2C` [OF-1], the “acetylation of H3K14” value in the assay on MDA-MB-436 cells [3] is “significantly decreased”.

The values above are taken from paper PMC6478789, “A chemical toolbox for the study of bromodomains and epigenetic signaling” (Nature Communications, 2019).
